Experiment: not given
Settings: not given

Compound	melting point [°C]
Cc1cc(C#N)ccc1-c1ccc(Oc2nc(Nc3ccc(C#N)cc3)nc3ccsc23)c(F)c1 [Example 13]	275.2 to 276.8
Cc1cc(-c2ccc(Oc3nc(Nc4ccc(C#N)cc4)nc4ccsc34)c(C)c2)ccc1C#N [Example 16]	259.4 to 261.1
N#Cc1ccc(Nc2nc(Oc3ccc(-c4ccc(C#N)c(F)c4)cc3F)c3sccc3n2)cc1 [Example 8]	> 300
N#Cc1ccc(Nc2nc(Oc3ccc(-c4ccc(C#N)cc4F)cc3)c3sccc3n2)cc1 [Example 1]	272.5 to 273.6
Cc1cc(-c2ccc(Oc3nc(Nc4ccc(C#N)cc4)nc4ccsc34)cc2)ccc1C#N [Example 6]	256.5 to 257.9
Cc1cc(-c2ccc(Oc3nc(Nc4ccc(C#N)cc4)nc4ccsc34)cc2C)ccc1C#N [Example 18]	264.9 to 266.2
Cc1cc(-c2ccc(Oc3nc(Nc4ccc(C#N)cc4)nc4ccsc34)c(F)c2)ccc1C#N [Example 14]	252.5 to 254.2
Cc1cc(-c2ccc(C#N)cc2C)ccc1Oc1nc(Nc2ccc(C#N)cc2)nc2ccsc12 [Example 15]	262.4 to 263.7
Cc1cc(-c2ccc(C#N)c(F)c2)ccc1Oc1nc(Nc2ccc(C#N)cc2)nc2ccsc12 [Example 10]	299.3 to 300.2
N#Cc1ccc(Nc2nc(Oc3ccc(-c4ccc(C#N)c(F)c4)cc3)c3sccc3n2)cc1 [Example 2]	258.8 to 260.3
Cc1cc(C#N)ccc1-c1ccc(Oc2nc(Nc3ccc(C#N)cc3)nc3ccsc23)cc1 [Example 5]	278.4 to 279.5
Cc1cc(C#N)ccc1-c1ccc(Oc2nc(Nc3ccc(C#N)cc3)nc3ccsc23)cc1C [Example 17]	274.3 to 275.8
N#Cc1ccc(Nc2nc(Oc3ccc(-c4ccc(C#N)cc4Cl)cc3)c3sccc3n2)cc1 [Example 3]	> 300
N#Cc1ccc(Nc2nc(Oc3ccc(-c4ccc(C#N)cc4F)cc3F)c3sccc3n2)cc1 [Example 7]	295.3 to 297
N#Cc1ccc(Nc2nc(Oc3ccc(-c4ccc(C#N)c(Cl)c4)cc3)c3sccc3n2)cc1 [Example 4]	246.3 to 247.7
Cc1cc(-c2ccc(C#N)cc2F)ccc1Oc1nc(Nc2ccc(C#N)cc2)nc2ccsc12 [Example 9]	268.5 to 271

Experiment: not given
Settings: clinical use; cited from earlier work

Compound	response rate [%]
Cc1cc(C#N)cc(C)c1Oc1nc(Nc2ccc(C#N)cc2)nc(N)c1Br [ETR, Etravirine]	36.5

Experiment: Cytotoxicity in uninfected MT-4 cells (MTT assay)
Type: cell-based
Settings: human, uninfected MT-4 cells; concentration that reduces normal uninfected MT-4 cell viability by 50%

Compound	CC50 at 7 d [µM]
Cc1ccnc2c1NC(=O)c1cccnc1N2C1CC1 [NVP, Nevirapine]	> 15
Cc1cc(C#N)cc(C)c1Oc1nc(Nc2ccc(C#N)cc2)nc(N)c1Br [ETR, Etravirine]	> 4.61

Same assay, conditions: human; concentration that reduces normal uninfected MT-4 cell viability by 50%

Compound	CC50 at 7 d [µM]
O=C1Nc2ccc(Cl)cc2[C@@](C#CC2CC2)(C(F)(F)F)O1 [EFV, Efavirenz]	> 6.34

— US11447501B2, “Biphenyl-containing diarylpyrimido compounds, pharmaceutically-acceptable salts thereof, composition and preparation thereof” (Fudan University, priority 2019, dated 2022)
